Laboratory results as given in patent US20250057928A1, “VACCINE COMPOSITION FOR INDUCING ANTI-IL-23 ANTIBODY” (OSAKA UNIVERSITY, priority 2021, published 2025).
Where no end group is shown, it is not given here.

Key:
[1] = tested on: epitope peptide; assay: Antibody titer (GMT) of serum of hairless rats, ELISA; assay type: in vivo, rat; details: 1 mg/body intradermal 3 times at two-week intervals, serum at 6 weeks
Experimental: AJP001 conjugated peptide having one of the B cell epitope sequences of SEQ ID NOs: 1-5 was dissolved in physiological saline and intradermally administered twice to BALB/c mice (female, 6-week-old, N=5-6) at 0.5 mg/body at 2-week intervals. Blood was collected before administration and 5 weeks after the initial administration, and the antibody titer against each AJP001 conjugated peptide and the binding ability to recombinant mouse IL-23 protein (rmIL-23) were measured by the ELISA method. Specifically, a 96-well plate immobilized with an epitope peptide dissolved at 10 μg/mL in carbonate buffer was blocked with 5% skim milk/PBS, and then serum serially diluted with 5% skim milk/PBS was added, and the mixture was left standing at 4° C. overnight. […] After washing the wells with PBS-T, TMB solution (SIGMA) was added, the wells were allowed to stand for 30 min in the dark, the reaction was stopped by adding 0.5M H2SO4, and the absorbance at 450 nm was measured using a plate reader. The serum dilution rate that gave 1/2 (OD=1.75) of the maximum absorbance was defined as the antibody titer, and the geometric mean titer: GMT was calculated from the individual values. Binding to IL-23 protein was measured by the ELISA method in the same manner as the antibody titer, using rmIL-23 (Antibodies-online GmbH) as the solid-phased antigen and goat serum for blocking. […]

[2] = tested on: recombinant mouse IL-23 protein (rmIL-23); assay: Binding of mouse antiserum to rmIL-23, ELISA; details: antiserum of BALB/c mice
Experimental: […] […] Specifically, a 96-well plate immobilized with an epitope peptide dissolved at 10 μg/mL in carbonate buffer was blocked with 5% skim milk/PBS, and then serum serially diluted with 5% skim milk/PBS was added, and the mixture was left standing at 4° C. overnight. After washing the wells with PBS-T, HRP-labeled anti-mouse IgG antibody (GE Healthcare) diluted with 5% skim milk/PBS was added and the mixture was shaken at room temperature for 3 hr. After washing the wells with PBS-T, TMB solution (SIGMA) was added, the wells were allowed to stand for 30 min in the dark, the reaction was stopped by adding 0.5M H2SO4, and the absorbance at 450 nm was measured using a plate reader. The serum dilution rate that gave 1/2 (OD=1.75) of the maximum absorbance was defined as the antibody titer, and the geometric mean titer: GMT was calculated from the individual values. Binding to IL-23 protein was measured by the ELISA method in the same manner as the antibody titer, using rmIL-23 (Antibodies-online GmbH) as the solid-phased antigen and goat serum for blocking.
AJP001 conjugated peptide (SEQ ID NO: 2) was dissolved in physiological saline and intradermally administered to BALB/c mice (female, 6-week-old, N=6) at 1 mg/body 3 times at two-week intervals, and blood was collected every 2 weeks until 8 weeks. […]

[3] = tested on: rhIL-23; assay: Binding of monkey antiserum to rhIL-23, ELISA; parameters: species or system human; details: monkey antiserum 6 weeks after the initial administration
Experimental: (§1) AJP001 conjugated peptide (SEQ ID NO: 6) was dissolved in physiological saline and subcutaneously administered to Macaca fascicularis (female, […], N=4) at 5 mg/body 3 times at two-week intervals. Blood was collected every two weeks from the first day of administration until week 16, and the antibody titer (GMT) and binding to IL-23 of the serum at each time point were measured by the ELISA method (same method as in Example 1; the secondary antibody used was Anti-Monkey IgG (Abcam)). In FIG. 7, “*” means P<0.05.

[4] = tested on: rmIL-23; assay: Binding of monkey antiserum to rmIL-23, ELISA; parameters: species or system mouse; details: monkey antiserum 6 weeks after the initial administration; second statement of b202, FIG. 7(b) covers rhIL-23 and rmIL-23
Experimental: FIG. 7(a) is a graph showing the antibody titer (GMT) of serum collected over time from Macaca fascicularis administered with AJP001 conjugated peptide (SEQ ID NO: 6). FIG. 7(b) is a graph showing the binding ability to rhIL-23 and rmIL-23 of serum collected from the Macaca fascicularis administered with AJP001 conjugated peptide (SEQ ID NO: 6) at 6 weeks after the first administration. FIG. 7(c) is a graph showing the evaluation of neutralization activity of IgG derived from Macaca fascicularis administered with AJP001 conjugated peptide (SEQ ID NO: 6). FIG. 7(d) is a graph showing the results of epitope mapping of anti-IL-23 antibody induced by AJP001 conjugated peptide (SEQ ID NO: 6).
as §1

binding to rmIL-23 ([2]; 0.5 mg/body twice, 5 weeks after initial administration)	binding ability to rhIL-23 [3]	binding to rmIL-23 [4]	Substance	antibody titer (GMT) [1]	binding ability to rmIL-23 ([2]; 1 mg/body 3 times, 6 weeks)
confirmed	–	–	SEQ ID NO 2: AJP001-Ahx-B cell epitope peptide conjugate; epitope SSSQQWQR (mouse 152-159) (not fully specified (N-terminus); listed as Mus musculus)	increase	contained antibodies that bind to rmIL-23
–	showed binding ability	not observed	SEQ ID NO 6: AJP001-Ahx-B cell epitope peptide conjugate; epitope SPSQPWQR (human 151-158) (not fully specified (N-terminus); listed as Homo sapiens)	–	–
